Measurements as given in PubChem BioAssay (NCI).
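All cell lines were grown in 96-well plates and treated with compound for 48 hours. The concentration for 50% growth inhibition is given as GI50. Definition used: TGI = concentration required for complete inhibition of growth.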

Key:
Experiment in all cases: NCI tumour cell line growth inhibition, 48 h; in the data active = GI50 below about 0.43 µM; inactive = the rest
786-0 renal = test system: 786-0 renal
A498 renal = test system: A498 renal
A549 NSCLC = test system: A549 NSCLC
ACHN renal = test system: ACHN renal
BT-549 breast = test system: BT-549 breast
CAKI-1 renal = test system: CAKI-1 renal
CCRF-CEM leukemia = test system: CCRF-CEM leukemia
COLO 205 colon = test system: COLO 205 colon
DU-145 prostate = test system: DU-145 prostate
EKVX NSCLC = test system: EKVX NSCLC
HCC-2998 colon = test system: HCC-2998 colon
HCT-116 colon = test system: HCT-116 colon
HCT-15 colon = test system: HCT-15 colon
HL-60(TB) leukemia = test system: HL-60(TB) leukemia
HOP-62 NSCLC = test system: HOP-62 NSCLC
HOP-92 NSCLC = test system: HOP-92 NSCLC
HS 578T breast = test system: HS 578T breast
HT29 colon = test system: HT29 colon
IGROV1 ovarian = test system: IGROV1 ovarian
K-562 leukemia = test system: K-562 leukemia
KM12 colon = test system: KM12 colon
LOX IMVI melanoma = test system: LOX IMVI melanoma
MALME-3M melanoma = test system: MALME-3M melanoma
MCF7 breast = test system: MCF7 breast
MDA-MB-231 breast = test system: MDA-MB-231 breast
MDA-MB-435 = test system: MDA-MB-435
MOLT-4 leukemia = test system: MOLT-4 leukemia
NCI-H226 lung = test system: NCI-H226 lung
NCI-H23 lung = test system: NCI-H23 lung
NCI-H460 lung = test system: NCI-H460 lung
NCI-H522 lung = test system: NCI-H522 lung
NCI/ADR-RES ovarian = test system: NCI/ADR-RES ovarian
OVCAR-3 ovarian = test system: OVCAR-3 ovarian
OVCAR-4 ovarian = test system: OVCAR-4 ovarian
OVCAR-5 ovarian = test system: OVCAR-5 ovarian
OVCAR-8 ovarian = test system: OVCAR-8 ovarian
PC-3 prostate = test system: PC-3 prostate
RPMI-8226 leukemia = test system: RPMI-8226 leukemia
RXF 393 renal = test system: RXF 393 renal
SF-268 CNS = test system: SF-268 CNS
SF-295 CNS = test system: SF-295 CNS
SF-539 CNS = test system: SF-539 CNS
SK-MEL-2 melanoma = test system: SK-MEL-2 melanoma
SK-MEL-28 melanoma = test system: SK-MEL-28 melanoma
SK-MEL-5 melanoma = test system: SK-MEL-5 melanoma
SK-OV-3 ovarian = test system: SK-OV-3 ovarian
SN12C renal = test system: SN12C renal
SNB-19 CNS = test system: SNB-19 CNS
SNB-75 CNS = test system: SNB-75 CNS
SR leukemia = test system: SR leukemia
SW-620 colon = test system: SW-620 colon
T-47D breast = test system: T-47D breast
TK-10 renal = test system: TK-10 renal
U251 CNS = test system: U251 CNS
UACC-257 melanoma = test system: UACC-257 melanoma
UACC-62 melanoma = test system: UACC-62 melanoma
UO-31 renal = test system: UO-31 renal

CC(=O)OC[C@@]12Oc3c(cccc3-c3ccc(O)c4c3O[C@]3(COC(C)=O)C(=C4O)C(=O)C[C@H](C)[C@@H]3OC(C)=O)C(O)=C1C(=O)C[C@H](C)[C@@H]2OC(C)=O
46.4 µM: TGI (NCI-H522 lung)
16.9 µM: TGI (SK-MEL-5 melanoma)
> 100 µM: TGI (786-0 renal) | TGI (A549 NSCLC) | TGI (ACHN renal) | TGI (BT-549 breast) | TGI (CAKI-1 renal) | TGI (CCRF-CEM leukemia) | TGI (DU-145 prostate) | TGI (EKVX NSCLC) | TGI (HCC-2998 colon) | TGI (HCT-116 colon) | TGI (HCT-15 colon) | TGI (HOP-62 NSCLC) | TGI (HS 578T breast) | TGI (HT29 colon) | TGI (IGROV1 ovarian) | TGI (K-562 leukemia) | TGI (KM12 colon) | TGI (MCF7 breast) | TGI (MDA-MB-231 breast) | TGI (MDA-MB-435) | TGI (MOLT-4 leukemia) | TGI (NCI-H23 lung) | TGI (NCI-H460 lung) | TGI (NCI/ADR-RES ovarian) | TGI (OVCAR-3 ovarian) | TGI (OVCAR-4 ovarian) | TGI (OVCAR-5 ovarian) | TGI (OVCAR-8 ovarian) | TGI (PC-3 prostate) | TGI (SF-268 CNS) | TGI (SF-539 CNS) | TGI (SK-MEL-28 melanoma) | TGI (SN12C renal) | TGI (SNB-19 CNS) | TGI (SR leukemia) | TGI (SW-620 colon) | TGI (T-47D breast) | TGI (TK-10 renal) | TGI (U251 CNS) | TGI (UACC-62 melanoma) | TGI (UO-31 renal)
50.5 µM: TGI (RXF 393 renal)
42.8 µM: TGI (SNB-75 CNS)
56.5 µM: TGI (MALME-3M melanoma)
48.4 µM: TGI (A498 renal)
12.9 µM: TGI (LOX IMVI melanoma)
80.8 µM: TGI (SF-295 CNS)
56.6 µM: TGI (HL-60(TB) leukemia)
31.4 µM: TGI (UACC-257 melanoma)
48.9 µM: TGI (COLO 205 colon)
63.5 µM: TGI (NCI-H226 lung)
88.6 µM: TGI (SK-OV-3 ovarian)
63.9 µM: TGI (SK-MEL-2 melanoma)
inactive: GI50 (786-0 renal) 33.5 µM | GI50 (A498 renal) 3.3 µM | GI50 (A549 NSCLC) 4.06 µM | GI50 (ACHN renal) 30.3 µM | GI50 (BT-549 breast) 4.54 µM | GI50 (CAKI-1 renal) 28.6 µM | GI50 (CCRF-CEM leukemia) 5.92 µM | GI50 (COLO 205 colon) 19.7 µM | GI50 (DU-145 prostate) 10.8 µM | GI50 (EKVX NSCLC) 24.3 µM | GI50 (HCC-2998 colon) 6.13 µM | GI50 (HCT-116 colon) 28.3 µM | GI50 (HCT-15 colon) 5.45 µM | GI50 (HL-60(TB) leukemia) 17.7 µM | GI50 (HOP-62 NSCLC) 4.19 µM | GI50 (HOP-92 NSCLC) 5 µM | GI50 (HS 578T breast) 3.77 µM | GI50 (HT29 colon) 7.87 µM | GI50 (IGROV1 ovarian) 7.12 µM | GI50 (K-562 leukemia) 30.5 µM | GI50 (KM12 colon) 27.5 µM | GI50 (LOX IMVI melanoma) 3.53 µM | GI50 (MALME-3M melanoma) 6.88 µM | GI50 (MCF7 breast) 26.1 µM | GI50 (MDA-MB-231 breast) 25.5 µM | GI50 (MDA-MB-435) 5.3 µM | GI50 (MOLT-4 leukemia) 10.9 µM | GI50 (NCI-H226 lung) 20.2 µM | GI50 (NCI-H23 lung) 10.6 µM | GI50 (NCI-H460 lung) 4.83 µM | GI50 (NCI-H522 lung) 7.97 µM | GI50 (NCI/ADR-RES ovarian) 32.7 µM | GI50 (OVCAR-3 ovarian) 13.9 µM | GI50 (OVCAR-4 ovarian) 29.4 µM | GI50 (OVCAR-5 ovarian) 29.3 µM | GI50 (OVCAR-8 ovarian) 6.39 µM | GI50 (PC-3 prostate) 15.3 µM | GI50 (RPMI-8226 leukemia) 6.08 µM | GI50 (RXF 393 renal) 9.39 µM | GI50 (SF-268 CNS) 4.32 µM | GI50 (SF-295 CNS) 6.92 µM | GI50 (SF-539 CNS) 3.97 µM | GI50 (SK-MEL-2 melanoma) 14.7 µM | GI50 (SK-MEL-28 melanoma) 6.1 µM | GI50 (SK-MEL-5 melanoma) 4.76 µM | GI50 (SK-OV-3 ovarian) 25.5 µM | GI50 (SN12C renal) 6.98 µM | GI50 (SNB-19 CNS) 15.7 µM | GI50 (SNB-75 CNS) 2530 nM | GI50 (SR leukemia) 3.68 µM | GI50 (SW-620 colon) 33.2 µM | GI50 (T-47D breast) 18.5 µM | GI50 (TK-10 renal) 29.9 µM | GI50 (U251 CNS) 4.08 µM | GI50 (UACC-257 melanoma) 3.4 µM | GI50 (UACC-62 melanoma) 5.75 µM | GI50 (UO-31 renal) 23.9 µM
38.5 µM: TGI (HOP-92 NSCLC)
46.1 µM: TGI (RPMI-8226 leukemia)
